Results reported in patent US20250296959A1, “B7-H3 TARGETING PEPTIDES AND CONSTRUCTS THEREOF” (Mariana Oncology Inc., priority 2024, published 2025).
Like-named read-outs stand apart in the source and are kept apart here. Starred links: 1 amine or outer side, 2 acyl side, 3 side chain; linkers in the order of their positions; H or OH if unused. Positions of bridges follow the written chain, without caps; N, C: chain ends. Non-standard residues stand in square brackets, D forms with d. Residues, ends and D or L forms follow the SMILES beside them. *: point of attachment. X2 = O=C(O)CN1CCN(CC(=O)O)CCN(CC(=O)NCCOCCOCCOCCOCC(=O)*)CCN(CC(=O)O)CC1; Ala(piperidin-4-yl) = O=C([C@H](CC1CCN([*:3])CC1)N[*:1])[*:2]; DOTA = O=C(O)CN1CCN(CC(=O)O)CCN(CC(=O)*)CCN(CC(=O)O)CC1; Phe(4-COOH) = N[C@@H](Cc1ccc(C(=O)O)cc1)C(=O)O; Trp(5-F) = N[C@@H](Cc1c[nH]c2ccc(F)cc12)C(=O)O; PEG8 = NCCOCCOCCOCCOCCOCCOCCOCCOCCC(=O)O; 1Nal = N[C@@H](Cc1cccc2ccccc12)C(=O)O; Ala(4-THP) = N[C@@H](CC1CCOCC1)C(=O)O; Val(3-OH) = CC(C)(O)[C@H](N)C(=O)O; Tle = CC(C)(C)[C@H](N)C(=O)O; hLeu = CC(C)CC[C@H](N)C(=O)O

Tests used:
[1] = test system: Calu-6 cell line; assay: Cell associated (bound) fraction of [177Lu]Lu-labeled peptide in Calu-6 cells; format: cell-based, Human; conditions: 1 hour, 37° C.
Procedure: (§1) [^177Lu]LuCl3 was received from venders in HCl solution. For every mCi of [^177Lu]LuCl3 added to the reaction vial (1.5 mL Eppendorf vial), ammonium acetate buffer (0.2 M, pH 4.9, 100 μL, containing 1% w/v ascorbic acid and 6% v/v ethanol) and peptide conjugate (1 nmol) was added. The pH of the solution was determined to be approximately 5 by using pH strips. The reaction vial was incubated at 80° C., 700 RPM for 17-20 minutes. A sample from the reaction was analyzed by RP-HPLC using an Agilent Infinity II 1260 HPLC to determine reaction completion and radiochemical purity. HPLC conditions: Waters XBridge BEH C18 Column, 130 Å, 3.5 μm, 4.6 mm×250 mm; mobile phase: Solvent A=water (with 0.1% formic acid), solvent B=acetonitrile (with 0.1% formic acid). Gradients: 25-45% B in 10 minutes, 45-65% B in 12 minutes, 65-90% in 6 minutes at a flow rate of 0.5 mL/minute. Required amounts of the product were formulated in 1% PBSA for cell studies.
(§2) The study was conducted using Calu-6 cell line (Table 8)
(§3) Adherent cell studies: The cells were cultured in appropriate culture media (20 mL) in tissue culture treated T150 flasks at 37° C. and 5% CO2. Adherent cells were detached (60-70% confluent) using 5 mL Versene at 37° C. for 3 minutes. After confirming the viability using countess and count of detached cells using Trypan blue, the cells were centrifuged at 4° C. for 5 minutes (1,000 revolutions per minute). The cell pellet obtained was washed once with PBS and resuspended in 1% PBSA to obtain the desired cell concentration (5 million cells/mL).
Cell associated fraction: Cells were incubated with 300 μL (0.8 μCi) of the incubation buffer (containing radiolabeled peptide [^177Lu]Lu-test peptide) for 1 hour at 37 C (Table 9). Post incubation, the cells were pelleted and washed 2 times using cold PBS+1% BSA. The supernatant and washes were combined and counted together as “unbound fraction” in a gamma counter. The cells were then resuspended in 300 μL of 1% PBS+1% BSA and counted in the gamma counter as cell associated fraction (or bound fraction).
(§4) Calu-6 Cells are Human-Derived, Non-Engineered Lung Cancer Cell that Express B7-H3.

[2] = test system: Calu-6 cell line; assay: Net internalization of [177Lu]Lu-labeled peptide in Calu-6 cells; format: cell-based, Human; conditions: 1 hour, 37° C., glycine pH 2.5 acid wash
Procedure: as §1, §2, §3
Net internalization: The resuspended cells in 300 μl of 1% PBSA and counted in the gamma counter as “bound fraction” were collected in 1.5 mL Eppendorf tube and pelleted. The pelleted cells were incubated with 300 μl of 50 mM Glycine pH=2.5 for 3 minutes and then pelleted discarding the supernatant. This process was repeated one more time. The pelleted cells were washed with 300 μl of cold 1% PBSA and then resuspended in 300 μl 0.3 M NaOH. This was counted in the gamma counter as “internalized fraction”.
as §4

[3] = molecular target: T1, human 4lg B7-H3 (Homo sapiens, UniProt Q5ZPR3); assay: Affinity determination by surface plasmon resonance (SPR) to 4Ig B7-H3; conditions: 4Ig B7-H3
T1 sequence (Q5ZPR3 29-534): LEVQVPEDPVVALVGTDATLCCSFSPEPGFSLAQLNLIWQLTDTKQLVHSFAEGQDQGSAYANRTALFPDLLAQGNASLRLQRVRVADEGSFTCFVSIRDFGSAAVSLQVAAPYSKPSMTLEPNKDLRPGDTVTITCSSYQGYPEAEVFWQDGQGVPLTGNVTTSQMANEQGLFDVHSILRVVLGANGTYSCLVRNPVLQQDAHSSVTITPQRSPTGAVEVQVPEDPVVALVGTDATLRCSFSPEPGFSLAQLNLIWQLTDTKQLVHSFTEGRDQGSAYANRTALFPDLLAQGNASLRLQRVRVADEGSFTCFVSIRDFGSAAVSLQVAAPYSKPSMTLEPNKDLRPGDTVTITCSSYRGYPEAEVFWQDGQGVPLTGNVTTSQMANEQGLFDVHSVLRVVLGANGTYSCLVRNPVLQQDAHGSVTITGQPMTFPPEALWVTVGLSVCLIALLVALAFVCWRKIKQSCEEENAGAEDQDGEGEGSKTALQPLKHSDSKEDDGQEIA

[4] = SPR KD—25° C., 25° C. flow cell temperature
[5] = read-out: SPR KD—37° C., 37° C. flow cell temperature

SMILES | % cell associated fraction [1] | % net internalization [2] | Kd [3, 4] | Kd ([3]; SPR KD—37° C., 37° C. flow cell temperature) | Kd [3, 5]
CC(=O)N[C@@H](CCC(C)C)C(=O)N[C@@H](Cc1ccc(O)cc1)C(=O)N[C@H]1CSSC[C@@H](C(=O)N[C@@H](Cc2cccc3ccccc23)C(=O)N[C@@H](Cc2ccccc2)C(=O)N2CCC[C@H]2C(=O)N[C@H](CCCCNC(=O)COCCOCCOCCOCCNC(=O)CN2CCN(CC(=O)O)CCN(CC(=O)O)CCN(CC(=O)O)CC2)C(N)=O)NC(=O)[C@H](Cc2ccc(O)cc2)NC(=O)[C@H](C(C)C)NC(=O)[C@H](CC(=O)O)NC(=O)[C@H](CC2CCOCC2)NC(=O)[C@H](CCCCN)NC(=O)CNC(=O)[C@H](C(C)(C)C)NC1=O [compound 259, Ac-hLeu-Y-C-Tbg-G-K-ThpA-D-V-Y-C-1Nal-F-Pro-dLys(PEG4-DOTA)-CONH2] (Ac-[hLeu]YC[Tle]GK[Ala(4-THP)]DVYC[1Nal]FP[dK](X2)-NH2; disulfide 3-11) | B (25<%≤50) | A (%≤25) | < 1 nM | 1 to 10 nM | 
CC(C)CC[C@H](NC(=O)CCOCCOCCOCCOCCOCCOCCOCCOCCNC(=O)CN1CCN(CC(=O)O)CCN(CC(=O)O)CCN(CC(=O)O)CC1)C(=O)N[C@@H](Cc1ccc(O)cc1)C(=O)N[C@H]1CSSC[C@@H](C(=O)N[C@@H](Cc2c[nH]c3ccc(F)cc23)C(=O)N[C@@H](Cc2ccccc2)C(=O)N2CCC[C@H]2C(N)=O)NC(=O)[C@H](Cc2ccc(O)cc2)NC(=O)[C@H](C(C)C)NC(=O)[C@H](CC(=O)O)NC(=O)[C@H](Cc2ccc(C(=O)O)cc2)NC(=O)[C@H](CCCCN)NC(=O)CNC(=O)[C@H](C(C)C)NC1=O [compound 294, DOTA-PEG8-hLeu-Y-C-V-G-K-4COOHPhe-D-V-Y-C-5FW-F-Pro-CONH2] ({DOTA-PEG8}-[hLeu]YCVGK[Phe(4-COOH)]DVYC[Trp(5-F)]FP-NH2; disulfide 3-11) | A (%≤25) | A (%≤25) | 1 to 10 nM |  | 
CC(=O)N[C@@H](CCC(C)C)C(=O)N[C@@H](Cc1ccc(O)cc1)C(=O)N[C@H]1CSSC[C@@H](C(=O)N[C@@H](Cc2c[nH]c3ccc(F)cc23)C(=O)N[C@@H](Cc2ccccc2)C(=O)N[C@H](C(=O)N[C@H](CCCCNC(=O)CN2CCN(CC(=O)O)CCN(CC(=O)O)CCN(CC(=O)O)CC2)C(=O)O)C(C)(C)O)NC(=O)[C@H](Cc2ccc(O)cc2)NC(=O)[C@H](C(C)C)NC(=O)[C@H](CC(=O)O)NC(=O)[C@H](CC2CCOCC2)NC(=O)[C@H](CC2CCNCC2)NC(=O)CNC(=O)[C@H](C(C)(C)C)NC1=O [compound 340, Ac-hLeu-Y-C-Tbg-G-PipAla-ThpA-D-V-Y-C-5FW-F-hydroxyVal-dLys(DOTA)-COOH] (Ac-[hLeu]YC[Tle]G[Ala(piperidin-4-yl)][Ala(4-THP)]DVYC[Trp(5-F)]F[Val(3-OH)][dK](DOTA)-OH; disulfide 3-11) | C (%>50) | A (%≤25) |  |  | < 1 nM
CC(=O)N[C@@H](CCC(C)C)C(=O)N[C@@H](Cc1ccc(O)cc1)C(=O)N[C@H]1CSSC[C@@H](C(=O)N[C@@H](Cc2c[nH]c3ccc(F)cc23)C(=O)N[C@@H](Cc2ccccc2)C(=O)N[C@H](C(N)=O)C(C)(C)O)NC(=O)[C@H](Cc2ccc(O)cc2)NC(=O)[C@H](C(C)C)NC(=O)[C@H](CC(=O)O)NC(=O)[C@H](CC2CCOCC2)NC(=O)[C@H](CCCCNC(=O)CN2CCN(CC(=O)O)CCN(CC(=O)O)CCN(CC(=O)O)CC2)NC(=O)CNC(=O)[C@H](C(C)(C)C)NC1=O [compound 338, Ac-hLeu-Y-C-Tbg-G-Lys(DOTA)-ThpA-D-V-Y-C-5FW-F-hydroxyVal-CONH2] (Ac-[hLeu]YC[Tle]GK(DOTA)[Ala(4-THP)]DVYC[Trp(5-F)]F[Val(3-OH)]-NH2; disulfide 3-11) | B (25<%≤50) | A (%≤25) |  |  | 1 to 10 nM
